{"source": "patent US20220389003A1", "about": "“4-SUBSTITUTED INDOLE AND INDAZOLE SULFONAMIDO DERIVATIVES AS PARG INHIBITORS” (IDEAYA BIOSCIENCES, INC., priority 2019, published 2022)", "key": {"PARG [1]": {"target": "T1, PARG (Homo sapiens, UniProt Q86W56)", "T1 sequence (Q86W56 whole entry)": "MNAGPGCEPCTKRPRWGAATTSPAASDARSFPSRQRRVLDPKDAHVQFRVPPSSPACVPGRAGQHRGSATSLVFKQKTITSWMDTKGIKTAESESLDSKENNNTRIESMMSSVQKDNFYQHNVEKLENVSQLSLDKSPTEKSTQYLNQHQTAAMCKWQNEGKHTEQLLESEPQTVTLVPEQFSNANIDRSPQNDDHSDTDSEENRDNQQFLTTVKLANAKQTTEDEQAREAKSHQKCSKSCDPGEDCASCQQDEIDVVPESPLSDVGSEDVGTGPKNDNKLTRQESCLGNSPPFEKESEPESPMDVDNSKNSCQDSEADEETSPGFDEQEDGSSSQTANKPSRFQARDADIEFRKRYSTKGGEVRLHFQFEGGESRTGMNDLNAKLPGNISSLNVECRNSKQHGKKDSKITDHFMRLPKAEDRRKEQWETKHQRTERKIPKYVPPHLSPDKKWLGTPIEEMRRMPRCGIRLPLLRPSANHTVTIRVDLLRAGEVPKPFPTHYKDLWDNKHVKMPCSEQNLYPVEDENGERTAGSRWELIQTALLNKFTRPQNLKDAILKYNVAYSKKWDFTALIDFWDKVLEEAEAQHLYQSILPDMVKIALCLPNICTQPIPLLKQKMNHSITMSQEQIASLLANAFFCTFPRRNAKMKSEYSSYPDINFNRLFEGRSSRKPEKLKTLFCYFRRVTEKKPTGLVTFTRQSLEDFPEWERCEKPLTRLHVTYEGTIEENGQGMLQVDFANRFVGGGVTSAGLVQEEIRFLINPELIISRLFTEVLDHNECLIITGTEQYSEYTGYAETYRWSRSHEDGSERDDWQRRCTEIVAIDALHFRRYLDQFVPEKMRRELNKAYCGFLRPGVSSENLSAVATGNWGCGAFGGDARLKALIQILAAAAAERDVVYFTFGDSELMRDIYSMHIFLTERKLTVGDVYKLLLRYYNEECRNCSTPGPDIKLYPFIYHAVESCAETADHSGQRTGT", "test": "Inhibition of PARG cellular assay (PAR foci in HeLa cells after MMS)", "format": "cell-based", "design": "endogenous in cells; host or cells: HeLa", "settings": "compound 1 h then MMS 1 h", "summary_of_the_method": "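HeLa cells pretreated with compound for 1 h, then given MMS for a further 1 h, fixed and immunostained for PAR polymer. High-content imaging quantified nuclear PAR foci intensity (PAR Foci IC50) and percent cells with foci signal >1.3 (PAR % positive IC50).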"}, "PARG [2]": {"target": "T1, PARG", "test": "Inhibition of PARG enzymatic assay (TR-FRET enzymatic IC50 assay)", "format": "biochemical", "design": "purchased Peak Proteins", "settings": "hPARG 250 pM, biotinylated-PARylated PARP substrate 30 nM", "summary_of_the_method": "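Compound preincubated 1 h with 250 pM His-tagged hPARG, then 30 nM biotinylated PARylated hPARP1 substrate added for 10 min; buffer 50 mM Tris-HCl pH 7.4, EDTA/EGTA, 1 mM DTT, 23° C. TR-FRET read after 1 h with anti-His ULight antibody and streptavidin-europium; inhibition scaled between DMSO and no-enzyme controls.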"}, "[3]": {"system": "HCC1806-XRCC1 KD (knock down) cells", "test": "Cellular viability assay (Cell Titer-Glo)", "format": "cell-based", "settings": "96 h, HCC1806-shXRCC1 cells, 4 days of incubation, read-out: PARGi cell viability", "summary_of_the_method": "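XRCC1-knockdown HCC1806 cells seeded 24 h before dosing; 9-point 1:3 dilution from 30 μM top concentration, duplicates, 4-day incubation. Viability by CellTiter-Glo luminescence, normalized to DMSO wells as % of control; curves fit with 4-parameter inhibition model.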"}}, "data": [{"smiles": "CC1(C(=O)N2CCN(c3cc(S(=O)(=O)NC4(C#N)CC4)cc4c3cnn4-c3nnc(C(F)F)s3)CC2)CCC1", "note": "[Example 112, 1-{[(1-[5-(difluoromethyl)(1,3,4-thiadiazol-2-yl)]-4-{4-[(methylcyclobutyl)carbonyl]piperazinyl}-1H-indazol-6-yl)sulfonyl]amino}cyclopropanecarbonitrile]", "values": [{"measurement": "IC50", "setting": "PARG [1]", "result": "≤ 100", "unit": "nM"}, {"measurement": "IC50", "setting": "PARG [2]", "result": "≤ 100", "unit": "nM"}, {"measurement": "IC50", "setting": "[3]", "result": "< 1000", "unit": "nM"}]}, {"smiles": "CCC(C)C(=O)N1CCN(c2cc(S(=O)(=O)NC3(C#N)CC3)cc3c2cnn3-c2nnc(C(F)F)s2)CC1", "note": "(stereo not drawn) [Example 113, 1-[({1-[5-(difluoromethyl)(1,3,4-thiadiazol-2-yl)]-4-[4-(2-methylbutanoyl)piperazinyl]-1H-indazol-6-yl}sulfonyl)amino]cyclopropanecarbonitrile]", "values": [{"measurement": "IC50", "setting": "PARG [1]", "result": "≤ 100", "unit": "nM"}, {"measurement": "IC50", "setting": "PARG [2]", "result": "≤ 100", "unit": "nM"}, {"measurement": "IC50", "setting": "[3]", "result": "< 1000", "unit": "nM"}]}, {"smiles": "N#CC1(NS(=O)(=O)c2cc(N3CCC4(CC3)COC4)c3c(Cl)nn(-c4nnc(C(F)F)s4)c3c2)CC1", "note": "[Example 114, 1-[({1-[5-(difluoromethyl)(1,3,4-thiadiazol-2-yl)]-3-chloro-4-(2-oxa-7-azaspiro[3.5]non-7-yl)-1H-indazol-6-yl}sulfonyl)amino]cyclopropanecarbonitrile]", "values": [{"measurement": "IC50", "setting": "PARG [1]", "result": "300 to 1000", "unit": "nM"}, {"measurement": "IC50", "setting": "PARG [2]", "result": "1000 to 10000", "unit": "nM"}, {"measurement": "IC50", "setting": "[3]", "result": "10000 to 20000", "unit": "nM"}]}, {"smiles": "CN(C)C(=O)N1CCN(c2cc(S(=O)(=O)NC3(C#N)CC3)cc3c2c(Cl)nn3-c2nnc(C(F)F)s2)CC1", "note": "[Example 115, [4-(1-[5-(difluoromethyl)(1,3,4-thiadiazol-2-yl)]-3-chloro-6-{[(cyanocyclopropyl)-amino]sulfonyl}(1H-indazol-4-yl))piperazinyl]-N,N-dimethylcarboxamide]", "values": [{"measurement": "IC50", "setting": "PARG [1]", "result": "300 to 1000", "unit": "nM"}, {"measurement": "IC50", "setting": "PARG [2]", "result": "300 to 1000", "unit": "nM"}, {"measurement": "IC50", "setting": "[3]", "result": "10000 to 20000", "unit": "nM"}]}]}
